Reference: patent US20100222548A1, “METHOD FOR PRODUCING CONDENSATION PRODUCTS FROM N-SUBSTITUTED GLYCINE DERIVATIVES(PEPTOIDS) BY SEQUENTIAL UGI-MULTICOMPONENT REACTIONS” (priority 2006, published 2010)
Where a SMILES comes first, the peptide text is derived from it. [ ]: non-standard residue; d: D form. Gly(Nα-4-Cl-benzyl) = O=C(O)CNCc1ccc(Cl)cc1; Gly(N-(CH2)3OMe) = COCCCNCC(=O)O; N(iPr)Gly = CC(C)NCC(=O)O

System: Vibrio fischeri

COCCCN(CC(=O)NCC(=O)O)C(=O)CNC(=O)CN(C(=O)CNC(=O)CN(Cc1ccc(Cl)cc1)C(=O)CN)C(C)C (H-G[Gly(Nα-4-Cl-benzyl)]G[N(iPr)Gly]G[Gly(N-(CH2)3OMe)]G-OH)
IC50: ~10 µM
